Biological target: T1, Androgen Receptor (Homo sapiens, UniProt P10275+P40337, T878A)
T1 construct: Compounds have been evaluated in this assay in LNCaP and/or VCaP cells utilizing similar protocols; endogenous in cells; host or cells: LNCaP cells
Assay: Androgen Receptor ELISA assay (PathScan AR ELISA) in LNCaP cells: AR degradation, Dmax and DC50
Format: cell-based
Conditions: for DC50: concentration that caused 50% Androgen Receptor degradation; for Dmax: highest percentage of Androgen Receptor degradation

T1 sequence (P10275 whole entry T878A): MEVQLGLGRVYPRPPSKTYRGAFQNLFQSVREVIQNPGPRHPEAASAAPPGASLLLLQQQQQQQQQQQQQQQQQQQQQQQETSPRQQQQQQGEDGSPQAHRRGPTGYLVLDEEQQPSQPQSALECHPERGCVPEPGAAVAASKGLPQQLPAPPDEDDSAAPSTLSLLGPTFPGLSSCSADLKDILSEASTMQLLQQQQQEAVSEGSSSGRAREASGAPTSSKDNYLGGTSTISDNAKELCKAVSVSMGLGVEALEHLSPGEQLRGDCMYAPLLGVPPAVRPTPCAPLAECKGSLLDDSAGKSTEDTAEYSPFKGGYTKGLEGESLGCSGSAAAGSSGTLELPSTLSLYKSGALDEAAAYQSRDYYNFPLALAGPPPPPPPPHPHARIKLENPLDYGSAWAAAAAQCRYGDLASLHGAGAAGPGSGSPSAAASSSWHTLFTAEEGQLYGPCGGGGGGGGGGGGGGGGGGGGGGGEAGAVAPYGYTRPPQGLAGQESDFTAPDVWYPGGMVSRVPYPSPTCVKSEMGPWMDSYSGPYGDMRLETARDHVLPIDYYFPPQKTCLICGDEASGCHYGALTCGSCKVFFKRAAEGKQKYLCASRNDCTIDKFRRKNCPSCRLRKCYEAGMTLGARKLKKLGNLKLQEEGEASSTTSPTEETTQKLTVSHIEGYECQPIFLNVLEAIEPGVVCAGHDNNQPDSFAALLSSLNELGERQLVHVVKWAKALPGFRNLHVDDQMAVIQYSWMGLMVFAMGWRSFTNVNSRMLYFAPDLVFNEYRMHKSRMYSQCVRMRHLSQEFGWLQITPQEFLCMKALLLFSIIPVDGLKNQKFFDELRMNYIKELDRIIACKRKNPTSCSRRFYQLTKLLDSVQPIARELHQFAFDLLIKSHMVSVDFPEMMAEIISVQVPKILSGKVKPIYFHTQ
T1 sequence (P40337 whole entry): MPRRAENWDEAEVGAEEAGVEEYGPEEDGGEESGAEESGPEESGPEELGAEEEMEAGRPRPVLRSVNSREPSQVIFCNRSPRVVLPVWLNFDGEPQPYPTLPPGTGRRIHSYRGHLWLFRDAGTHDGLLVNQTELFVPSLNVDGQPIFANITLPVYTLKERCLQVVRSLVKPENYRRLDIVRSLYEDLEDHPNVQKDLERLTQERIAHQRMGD
T1 sequence (Q15369 whole entry partner): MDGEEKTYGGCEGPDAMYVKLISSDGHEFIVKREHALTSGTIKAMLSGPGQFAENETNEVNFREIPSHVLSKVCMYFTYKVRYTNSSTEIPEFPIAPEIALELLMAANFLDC
T1 sequence (Q15370 whole entry partner): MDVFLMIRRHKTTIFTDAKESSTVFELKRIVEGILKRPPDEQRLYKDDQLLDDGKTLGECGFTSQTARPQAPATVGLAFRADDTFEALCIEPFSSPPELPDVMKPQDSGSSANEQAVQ

Row | SMILES | DC50 [µM] | Dmax [%]
1 | Cc1ncsc1-c1ccc(CNC(=O)[C@@H]2C[C@@H](O)CN2C(=O)[C@H](C(C)C)N2Cc3ccccc3C2=O)c(OCCCOCCOc2ccc(N3C(=S)N(c4ccc(C#N)c(C(F)(F)F)c4)C(=O)C3(C)C)cc2)c1 [Example 241] | < 0.05 | 26 to 50
2 | Cc1ncsc1-c1ccc(CNC(=O)[C@@H]2C[C@@H](O)CN2C(=O)[C@@H](NC(=O)COCCOCCCOc2ccc(N3C(=S)N(c4ccc(C#N)c(C(F)(F)F)c4)C(=O)C3(C)C)cc2)C(C)(C)C)cc1 [Example 243] | 0.051 to 0.5 | 51 to 70
3 | Cc1ncsc1-c1ccc(CNC(=O)[C@@H]2C[C@@H](O)CN2C(=O)[C@@H](NC(=O)CCOCCCOc2ccc(N3C(=S)N(c4ccc(C#N)c(C(F)(F)F)c4)C(=O)C3(C)C)cc2)C(C)(C)C)cc1 [Example 244] | 0.051 to 0.5 | < 25
4 | Cc1ncsc1-c1ccc(CNC(=O)[C@@H]2C[C@@H](O)CN2C(=O)[C@@H](NC(=O)CCCOCCOCCNC(=O)c2ccc(N3C(=S)N(c4ccc(C#N)c(C(F)(F)F)c4)C(=O)C3(C)C)cc2F)C(C)(C)C)cc1 [Example 245] | > 0.501 | 26 to 50
5 | Cc1ncsc1-c1ccc(CNC(=O)[C@@H]2C[C@@H](O)CN2C(=O)[C@@H](NC(=O)CCCCOCCCCCOc2ccc(N3C(=S)N(c4ccc(C#N)c(C(F)(F)F)c4)C(=O)C3(C)C)cc2)C(C)(C)C)cc1 [Example 246] | 0.051 to 0.5 | > 71
6 | Cc1ncsc1-c1ccc(CNC(=O)[C@@H]2C[C@@H](O)CN2C(=O)[C@H](C(C)C)N2Cc3cc(CCCOCCOc4ccc(N5C(=S)N(c6ccc(C#N)c(C(F)(F)F)c6)C(=O)C5(C)C)cc4)ccc3C2=O)cc1 [Example 248] | 0.051 to 0.5 | 26 to 50
7 | Cc1ncsc1-c1ccc(CNC(=O)[C@@H]2C[C@@H](O)CN2C(=O)[C@@H](NC(=O)CCCCCOCCCCCOc2ccc(N3C(=S)N(c4ccc(C#N)c(C(F)(F)F)c4)C(=O)C3(C)C)cc2)C(C)(C)C)cc1 [Example 249] | 0.051 to 0.5 | > 71
8 | Cc1ncsc1-c1ccc(CNC(=O)[C@@H]2C[C@@H](O)CN2C(=O)[C@H](C(C)C)N2Cc3ccccc3C2=O)c(OCCCOCCCOc2ccc(N3C(=S)N(c4ccc(C#N)c(C(F)(F)F)c4)C(=O)C3(C)C)cc2)c1 [Example 250] | 0.051 to 0.5 | > 71
9 | Cc1ncsc1-c1ccc(CNC(=O)[C@@H]2C[C@@H](O)CN2C(=O)[C@H](C(C)C)N2Cc3cc(CCCCCOc4ccc(N5C(=S)N(c6ccc(C#N)c(C(F)(F)F)c6)C(=O)C5(C)C)cc4)ccc3C2=O)cc1 [Example 251] | 0.051 to 0.5 | 51 to 70
10 | Cc1ncsc1-c1ccc(CNC(=O)[C@@H]2C[C@@H](O)CN2C(=O)[C@H](C(C)C)N2Cc3cc(CCCCOCCOc4ccc(N5C(=S)N(c6ccc(C#N)c(C(F)(F)F)c6)C(=O)C5(C)C)cc4)ccc3C2=O)cc1 [Example 252] | 0.051 to 0.5 | 51 to 70
11 | Cc1ncsc1-c1ccc(CNC(=O)[C@@H]2C[C@@H](O)CN2C(=O)[C@@H](NC(=O)COCCCOCCOCCOc2ccc(N3C(=S)N(c4ccc(C#N)c(C(F)(F)F)c4)C(=O)C3(C)C)cc2)C(C)(C)C)cc1 [Example 253] | 0.051 to 0.5 | 51 to 70
12 | Cc1ncsc1-c1ccc(CNC(=O)[C@@H]2C[C@@H](O)CN2C(=O)[C@H](C(C)C)N2Cc3ccccc3C2=O)c(OCCCOc2ccc(N3C(=S)N(c4ccc(C#N)c(C(F)(F)F)c4)C(=O)C3(C)C)cc2)c1 [Example 254] | 0.051 to 0.5 | 51 to 70
13 | Cc1ncsc1-c1ccc(CNC(=O)[C@@H]2C[C@@H](O)CN2C(=O)[C@@H](NC(=O)COCCCCOCCCCCOc2ccc(N3C(=S)N(c4ccc(C#N)c(C(F)(F)F)c4)C(=O)C3(C)C)cc2)C(C)(C)C)cc1 [Example 255] | 0.051 to 0.5 | > 71
14 | Cc1ncsc1-c1ccc(CNC(=O)[C@@H]2C[C@@H](O)CN2C(=O)[C@H](C(C)C)N2Cc3ccccc3C2=O)c(OCCCCOc2ccc(N3C(=S)N(c4ccc(C#N)c(C(F)(F)F)c4)C(=O)C3(C)C)cc2)c1 [Example 256] | 0.051 to 0.5 | 51 to 70
15 | Cc1ncsc1-c1ccc(CNC(=O)[C@@H]2C[C@@H](O)CN2C(=O)[C@@H](NC(=O)c2ccc(OCCCCOc3ccc(N4C(=S)N(c5ccc(C#N)c(C(F)(F)F)c5)C(=O)C4(C)C)cc3)cc2)C(C)(C)C)cc1 [Example 257] | 0.051 to 0.5 | 26 to 50
16 | Cc1ncsc1-c1ccc(CNC(=O)[C@@H]2C[C@@H](O)CN2C(=O)[C@@H](NC(=O)c2ccc(OCCCCCOc3ccc(N4C(=S)N(c5ccc(C#N)c(C(F)(F)F)c5)C(=O)C4(C)C)cc3)cc2)C(C)(C)C)cc1 [Example 258] | 0.051 to 0.5 | 26 to 50
17 | Cc1ncsc1-c1ccc(CNC(=O)[C@@H]2C[C@@H](O)CN2C(=O)[C@@H](NC(=O)CCCCOc2ccc(CCCOc3ccc(N4C(=S)N(c5ccc(C#N)c(C(F)(F)F)c5)C(=O)C4(C)C)cc3)cc2)C(C)(C)C)cc1 [Example 259] | 0.051 to 0.5 | > 71
18 | Cc1ncsc1-c1ccc(CNC(=O)[C@@H]2C[C@@H](O)CN2C(=O)[C@H](C(C)C)N2Cc3ccccc3C2=O)c(OCCOc2ccc(N3C(=S)N(c4ccc(C#N)c(C(F)(F)F)c4)C(=O)C3(C)C)cc2)c1 [Example 261] | 0.051 to 0.5 | < 25

Row | SMILES | DC50 [µM] | Dmax [%]
19 | Cc1ncsc1-c1ccc(CNC(=O)[C@@H]2C[C@@H](O)CN2C(=O)[C@@H](NC(=O)COCCOCCCOCCCOc2ccc(N3C(=S)N(c4ccc(C#N)c(C(F)(F)F)c4)C(=O)C3(C)C)cc2)C(C)(C)C)cc1 [Example 262] | 0.051 to 0.5 | 26 to 50
20 | Cc1ncsc1-c1ccc(CNC(=O)[C@@H]2C[C@@H](O)CN2C(=O)[C@@H](NC(=O)c2ccc(OCCOCCCCOc3ccc(N4C(=S)N(c5ccc(C#N)c(C(F)(F)F)c5)C(=O)C4(C)C)cc3)cc2)C(C)(C)C)cc1 [Example 263] | 0.051 to 0.5 | 26 to 50
21 | Cc1ncsc1-c1ccc(CNC(=O)[C@@H]2C[C@@H](O)CN2C(=O)[C@@H](NC(=O)c2ccc(OCCOCCOc3ccc(N4C(=S)N(c5ccc(C#N)c(C(F)(F)F)c5)C(=O)C4(C)C)cc3)cc2)C(C)(C)C)cc1 [Example 264] | 0.051 to 0.5 | < 25
22 | Cc1ncsc1-c1ccc(CNC(=O)[C@@H]2C[C@@H](O)CN2C(=O)[C@@H](NC(=O)c2ccc(OCCCOc3ccc(N4C(=S)N(c5ccc(C#N)c(C(F)(F)F)c5)C(=O)C4(C)C)cc3)cc2)C(C)(C)C)cc1 [Example 265] | 0.051 to 0.5 | < 25
23 | CC(=O)N[C@H](C(=O)N1C[C@H](O)C[C@H]1C(=O)NCc1ccc(-c2scnc2C)cc1OCCOCCOCCOc1ccc(N2C(=S)N(c3ccc(C#N)c(C(F)(F)F)c3)C(=O)C2(C)C)cc1)C(C)(C)C [Example 266] | 0.051 to 0.5 | 51 to 70
24 | CCC(=O)N[C@H](C(=O)N1C[C@H](O)C[C@H]1C(=O)NCc1ccc(-c2scnc2C)cc1OCCOCCOCCOc1ccc(N2C(=S)N(c3ccc(C#N)c(C(F)(F)F)c3)C(=O)C2(C)C)cc1)C(C)(C)C [Example 267] | 0.051 to 0.5 | 51 to 70
25 | CCC(=O)N[C@H](C(=O)N1C[C@H](O)C[C@H]1C(=O)NCc1ccc(-c2scnc2C)cc1OCCOCCOCCOc1ccc(N2C(=O)N(c3ccc(C#N)c(C(F)(F)F)c3)C(=O)C2(C)C)cc1)C(C)(C)C [Example 268] | > 0.501 | 51 to 70
26 | Cc1ncsc1-c1ccc(CNC(=O)[C@@H]2C[C@@H](O)CN2C(=O)[C@@H](NC(=O)C(C)C)C(C)(C)C)c(OCCOCCOCCOc2ccc(N3C(=S)N(c4ccc(C#N)c(C(F)(F)F)c4)C(=O)C3(C)C)cc2)c1 [Example 269] | > 0.501 | 51 to 70
27 | Cc1ncsc1-c1ccc(CNC(=O)[C@@H]2C[C@@H](O)CN2C(=O)[C@@H](NC(=O)C(C)(C)C)C(C)(C)C)c(OCCOCCOCCOc2ccc(N3C(=S)N(c4ccc(C#N)c(C(F)(F)F)c4)C(=O)C3(C)C)cc2)c1 [Example 270] | 0.051 to 0.5 | 51 to 70
28 | CC(=O)NCC(=O)N1C[C@H](O)C[C@H]1C(=O)NCc1ccc(-c2scnc2C)cc1OCCOCCOCCOc1ccc(N2C(=S)N(c3ccc(C#N)c(C(F)(F)F)c3)C(=O)C2(C)C)cc1 [Example 271] | > 0.501 | 26 to 50
29 | CC(=O)N[C@@H](C)C(=O)N1C[C@H](O)C[C@H]1C(=O)NCc1ccc(-c2scnc2C)cc1OCCOCCOCCOc1ccc(N2C(=S)N(c3ccc(C#N)c(C(F)(F)F)c3)C(=O)C2(C)C)cc1 [Example 272] | > 0.501 | < 25
30 | Cc1ncsc1-c1ccc(CNC(=O)[C@@H]2C[C@@H](O)CN2C(=O)[C@H](C(C)C)N2Cc3cc(CCCCOCCCOc4ccc(N5C(=S)N(c6ccc(C#N)c(C(F)(F)F)c6)C(=O)C5(C)C)cc4)ccc3C2=O)cc1 [Example 273] | > 0.501 | 26 to 50
31 | Cc1ncsc1-c1ccc(CNC(=O)[C@@H]2C[C@@H](O)CN2C(=O)[C@@H](NC(=O)c2ccc(OCCOCCCOc3ccc(N4C(=S)N(c5ccc(C#N)c(C(F)(F)F)c5)C(=O)C4(C)C)cc3)cc2)C(C)(C)C)cc1 [Example 274] | 0.051 to 0.5 | 26 to 50
32 | Cc1ncsc1-c1ccc(CNC(=O)[C@@H]2C[C@@H](O)CN2C(=O)[C@@H](NC(=O)c2ccccc2OCCCOc2ccc(N3C(=S)N(c4ccc(C#N)c(C(F)(F)F)c4)C(=O)C3(C)C)cc2)C(C)(C)C)cc1 [Example 275] | > 0.501 | < 25
33 | Cc1ncsc1-c1ccc(CNC(=O)[C@@H]2C[C@@H](O)CN2C(=O)[C@@H](NC(=O)c2ccccc2OCCCCOc2ccc(N3C(=S)N(c4ccc(C#N)c(C(F)(F)F)c4)C(=O)C3(C)C)cc2)C(C)(C)C)cc1 [Example 276] | > 0.501 | < 25
34 | Cc1ncsc1-c1ccc(CNC(=O)[C@@H]2C[C@@H](O)CN2C(=O)[C@@H](NC(=O)c2cccc(OCCCOc3ccc(N4C(=S)N(c5ccc(C#N)c(C(F)(F)F)c5)C(=O)C4(C)C)cc3)c2)C(C)(C)C)cc1 [Example 277] | 0.051 to 0.5 | < 25
35 | Cc1ncsc1-c1ccc(CNC(=O)[C@@H]2C[C@@H](O)CN2C(=O)[C@H](C(C)C)N2Cc3ccccc3C2=O)c(OCCCCOCCCOc2ccc(N3C(=S)N(c4ccc(C#N)c(C(F)(F)F)c4)C(=O)C3(C)C)cc2)c1 [Example 279] | > 0.501 | 51 to 70
36 | CC[C@H](NC(C)=O)C(=O)N1C[C@H](O)C[C@H]1C(=O)NCc1ccc(-c2scnc2C)cc1OCCOCCOCCOc1ccc(N2C(=S)N(c3ccc(C#N)c(C(F)(F)F)c3)C(=O)C2(C)C)cc1 [Example 280] | > 0.501 | 26 to 50
